# Where a SMILES comes first, the peptide text is derived from it. Bridges are numbered along the chain shown (N, C = ends). [ ]: non-standard residue; d: D form. The star is where a group is joined. Val(Nα-amidino) = CC(C)[C@H](NC(=N)N)C(=O)*; dDab(iPr) = CC(C)NCC[C@@H](N)C(=O)O; Dab(iPr) = CC(C)NCC[C@H](N)C(=O)O; Hyp = O=C(O)[C@@H]1C[C@@H](O)CN1; Cit = NC(=O)NCCC[C@H](N)C(=O)O; Pen = CC(C)(S)[C@H](N)C(=O)O; dDab = NCC[C@@H](N)C(=O)O; Dab = NCC[C@H](N)C(=O)O
# Key:
# Format in all cases: cell-based
# [1] = tested on: human red blood cells (hRBC); settings: red cells of human, 1 h, 200 μg/mL
# Procedure, shortened: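 Peptides at 200 μg/mL incubated 1 h at 37 °C with 20% (v/v) washed human RBC, shaking. Hemolysis from supernatant OD540, expressed as percent of 2.5% Triton X-100 lysis, with PBS as 0%.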
# [2] = tested on: Klebsiella pneumoniae SSI3010; settings: SSI3010
# Procedure, shortened: (§1)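 The MIC is the lowest peptide concentration, in μg/mL, with no visible growth after 18-20 h incubation at 35 °C. Serial two-fold peptide dilutions in water with 0.002% P-80 final were added to bacteria in cation-adjusted MHII broth, about 5×10^5 CFU/mL, following modified CLSI microdilution.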
# [3] = tested on: Escherichia coli MCR-1 Af 45; settings: MCR-1 Af 45
# Procedure, shortened: as §1
# [4] = tested on: Escherichia coli ATCC 25922; settings: ATCC 25922
# Procedure, shortened: as §1
SMILES,Klebsiella pneumoniae SSI3010 MIC [2] [µg/mL],Escherichia coli MCR-1 Af45 MIC [3] [µg/mL],Escherichia coli ATCC 25922 MIC [4] [µg/mL],Hemolysis at 0.2 g/L [1] [%]
"CC[C@H](C)[C@H](NC(=O)[C@@H]1C[C@@H](O)CN1C(=O)[C@@H](NC(=N)N)C(C)C)C(=O)N[C@H]1CCC(=O)NCC[C@@H](C(=O)N[C@@H](Cc2ccc(O)cc2)C(=O)O)NC(=O)[C@H](CCN)NC(=O)[C@H](CCN)NC(=O)[C@H](CCCCN)NC(=O)[C@@H](CCN)NC(=O)[C@H]([C@@H](C)O)NC(=O)[C@H](CCN)NC(=O)[C@H](CCCNC(=N)N)NC(=O)[C@H](CC(N)=O)NC(=O)[C@H](CO)NC(=O)[C@H](Cc2ccc(O)cc2)NC1=O [Example 87, Gua-Val-Hyp-Ile-Glu-Tyr-Ser-Asn-Arg-Dab-Thr-^DDab-Lys-Dab-Dab-Dab-Tyr] ({Val(Nα-amidino)}-[Hyp]IEYSNR[Dab]T[dDab]K[Dab][Dab][Dab]Y-OH; lactam 3-14)",0.125,0.0625,0.125,<1
"CC[C@H](C)[C@H](NC(=O)[C@@H]1C[C@@H](O)CN1C(=O)[C@@H](NC(=N)N)C(C)C)C(=O)N[C@H]1CCC(=O)NCC[C@@H](C(=O)N[C@@H](Cc2ccc(O)cc2)C(=O)O)NC(=O)[C@H](CCN)NC(=O)[C@H](CCN)NC(=O)[C@H](CCCCN)NC(=O)[C@@H](CCN)NC(=O)[C@H]([C@@H](C)O)NC(=O)[C@H](CCN)NC(=O)[C@H](CCCNC(=N)N)NC(=O)[C@H](CC(N)=O)NC(=O)[C@H]([C@@H](C)O)NC(=O)[C@H](Cc2ccc(O)cc2)NC1=O [Example 88, Gua-Val-Hyp-Ile-Glu-Tyr-Thr-Asn-Arg-Dab-Thr-^DDab-Lys-Dab-Dab-Dab-Tyr] ({Val(Nα-amidino)}-[Hyp]IEYTNR[Dab]T[dDab]K[Dab][Dab][Dab]Y-OH; lactam 3-14)",0.125,0.0625,0.125,<1
"CC[C@H](C)[C@H](NC(=O)[C@@H]1C[C@@H](O)CN1C(=O)[C@@H](NC(=N)N)C(C)C)C(=O)N[C@H]1CCC(=O)NCC[C@@H](C(=O)N[C@@H](Cc2ccc(O)cc2)C(=O)O)NC(=O)[C@H](CCN)NC(=O)[C@H](CCN)NC(=O)[C@H](CCCCN)NC(=O)[C@@H](CCN)NC(=O)[C@H](CO)NC(=O)[C@H](CCN)NC(=O)[C@H](CCCNC(=N)N)NC(=O)[C@H](CC(N)=O)NC(=O)[C@H]([C@@H](C)O)NC(=O)[C@H](Cc2ccc(O)cc2)NC1=O [Example 89, Gua-Val-Hyp-Ile-Glu-Tyr-Thr-Asn-Arg-Dab-Ser-^DDab-Lys-Dab-Dab-Dab-Tyr] ({Val(Nα-amidino)}-[Hyp]IEYTNR[Dab]S[dDab]K[Dab][Dab][Dab]Y-OH; lactam 3-14)",0.125,0.125,0.125,<1
"CC[C@H](C)[C@H](NC(=O)[C@@H]1C[C@@H](O)CN1C(=O)[C@@H](NC(=N)N)C(C)C)C(=O)N[C@@H]1C(=O)N[C@@H](Cc2ccc(O)cc2)C(=O)N[C@@H](CO)C(=O)N[C@@H](CC(N)=O)C(=O)N[C@@H](CCCNC(=N)N)C(=O)N[C@@H](CCN)C(=O)N[C@@H]([C@@H](C)O)C(=O)N[C@H](CCN)C(=O)N[C@@H]([C@@H](C)O)C(=O)N[C@@H](CCN)C(=O)N[C@@H](CCN)C(=O)N[C@H](C(=O)N[C@@H](Cc2ccc(O)cc2)C(=O)O)CSSC1(C)C [Example 90, Gua-Val-Hyp-Ile-Pen-Tyr-Ser-Asn-Arg-Dab-Thr-^DDab-Thr-Dab-Dab-Cys-Tyr] ({Val(Nα-amidino)}-[Hyp]I[Pen]YSNR[Dab]T[dDab]T[Dab][Dab]CY-OH; disulfide 3-14)",0.25,0.125,0.25,<1
"CC[C@H](C)[C@H](NC(=O)[C@@H]1C[C@@H](O)CN1C(=O)[C@@H](NC(=N)N)C(C)C)C(=O)N[C@@H]1C(=O)N[C@@H](Cc2ccc(O)cc2)C(=O)N[C@@H]([C@@H](C)O)C(=O)N[C@@H](CC(N)=O)C(=O)N[C@@H](CCCNC(=N)N)C(=O)N[C@@H](CCCNC(N)=O)C(=O)N[C@@H]([C@@H](C)O)C(=O)N[C@H](CCN)C(=O)N[C@@H](CCCCN)C(=O)N[C@@H](CCN)C(=O)N[C@@H](CCN)C(=O)N[C@H](C(=O)N[C@@H](Cc2ccc(O)cc2)C(=O)O)CSSC1(C)C [Example 91, Gua-Val-Hyp-Ile-Pen-Tyr-Thr-Asn-Arg-Cit-Thr-^DDab-Lys-Dab-Dab-Cys-Y] ({Val(Nα-amidino)}-[Hyp]I[Pen]YTNR[Cit]T[dDab]K[Dab][Dab]CY-OH; disulfide 3-14)",0.25,0.125,0.125,<1

# Second part, led by results:
Klebsiella pneumoniae SSI3010 MIC [2] [µg/mL],Escherichia coli MCR-1 Af45 MIC [3] [µg/mL],Escherichia coli ATCC 25922 MIC [4] [µg/mL],SMILES,Hemolysis at 0.2 g/L [1] [%]
0.25,0.0625,0.0625,"CC[C@H](C)[C@H](NC(=O)[C@@H]1C[C@@H](O)CN1C(=O)[C@@H](NC(=N)N)C(C)C)C(=O)N[C@@H]1C(=O)N[C@@H](Cc2ccc(O)cc2)C(=O)N[C@@H]([C@@H](C)O)C(=O)N[C@@H](CC(N)=O)C(=O)N[C@@H](CCCNC(=N)N)C(=O)N[C@@H](CCNC(C)C)C(=O)N[C@@H]([C@@H](C)O)C(=O)N[C@H](CCN)C(=O)N[C@@H](CCCCN)C(=O)N[C@@H](CCN)C(=O)N[C@@H](CCN)C(=O)N[C@H](C(=O)N[C@@H](Cc2ccc(O)cc2)C(=O)O)CSSC1(C)C [Example 92, Gua-Val-Hyp-Ile-Pen-Tyr-Thr-Asn-Arg-Dab(iPr)-Thr-^DDab-Lys-Dab-Dab-Cys-Tyr] ({Val(Nα-amidino)}-[Hyp]I[Pen]YTNR[Dab(iPr)]T[dDab]K[Dab][Dab]CY-OH; disulfide 3-14)",<1
0.5,0.25,0.25,"CC[C@H](C)[C@H](NC(=O)[C@@H]1C[C@@H](O)CN1C(=O)[C@@H](NC(=N)N)C(C)C)C(=O)N[C@@H]1C(=O)N[C@@H](Cc2ccc(O)cc2)C(=O)N[C@@H]([C@@H](C)O)C(=O)N[C@@H](CC(N)=O)C(=O)N[C@@H](CCCNC(=N)N)C(=O)N[C@@H](CCNC(C)C)C(=O)N[C@@H]([C@@H](C)O)C(=O)N[C@H](CCN)C(=O)N[C@@H](CO)C(=O)N[C@@H](CCN)C(=O)N[C@@H](CCN)C(=O)N[C@H](C(=O)N[C@@H](Cc2ccc(O)cc2)C(=O)O)CSSC1(C)C [Example 93, Gua-Val-Hyp-Ile-Pen-Tyr-Thr-Asn-Arg-Dab(iPr)-Thr-^DDab-Ser-Dab-Dab-Cys-Tyr] ({Val(Nα-amidino)}-[Hyp]I[Pen]YTNR[Dab(iPr)]T[dDab]S[Dab][Dab]CY-OH; disulfide 3-14)",<1
0.25,0.125,0.25,"CC[C@H](C)[C@H](NC(=O)[C@@H]1C[C@@H](O)CN1C(=O)[C@@H](NC(=N)N)C(C)C)C(=O)N[C@@H]1C(=O)N[C@@H](Cc2ccc(O)cc2)C(=O)N[C@@H](CO)C(=O)N[C@@H](CC(N)=O)C(=O)N[C@@H](CCCNC(=N)N)C(=O)N[C@@H](CCN)C(=O)N[C@@H](CC(N)=O)C(=O)N[C@H](CCN)C(=O)N[C@@H](CCCCN)C(=O)N[C@@H](CCN)C(=O)N[C@@H](CCN)C(=O)N[C@H](C(=O)N[C@@H](Cc2ccc(O)cc2)C(=O)O)CSSC1(C)C [Example 94, Gua-Val-Hyp-Ile-Pen-Tyr-Ser-Asn-Arg-Dab-Asn-^DDab-Lys-Dab-Dab-Cys-Tyr] ({Val(Nα-amidino)}-[Hyp]I[Pen]YSNR[Dab]N[dDab]K[Dab][Dab]CY-OH; disulfide 3-14)",<1
0.25,0.125,0.125,"CC[C@H](C)[C@H](NC(=O)[C@@H]1C[C@@H](O)CN1C(=O)[C@@H](NC(=N)N)C(C)C)C(=O)N[C@@H]1C(=O)N[C@@H](Cc2ccc(O)cc2)C(=O)N[C@@H]([C@@H](C)O)C(=O)N[C@@H](CC(N)=O)C(=O)N[C@@H](CCCNC(=N)N)C(=O)N[C@@H](CCN)C(=O)N[C@@H]([C@@H](C)O)C(=O)N[C@H](CCNC(C)C)C(=O)N[C@@H](CCCCN)C(=O)N[C@@H](CCN)C(=O)N[C@@H](CCN)C(=O)N[C@H](C(=O)N[C@@H](Cc2ccc(O)cc2)C(=O)O)CSSC1(C)C [Example 95, Gua-Val-Hyp-Ile-Pen-Tyr-Thr-Asn-Arg-Dab-Thr-^DDab(iPr)-Lys-Dab-Dab-Cys-Tyr] ({Val(Nα-amidino)}-[Hyp]I[Pen]YTNR[Dab]T[dDab(iPr)]K[Dab][Dab]CY-OH; disulfide 3-14)",<1
0.25,0.125,0.125,"CC[C@H](C)[C@H](NC(=O)[C@@H]1C[C@@H](O)CN1C(=O)[C@@H](NC(=N)N)C(C)C)C(=O)N[C@@H]1C(=O)N[C@@H](Cc2ccc(O)cc2)C(=O)N[C@@H]([C@@H](C)O)C(=O)N[C@@H](CC(N)=O)C(=O)N[C@@H](CCCNC(=N)N)C(=O)N[C@@H](CCN)C(=O)N[C@@H]([C@@H](C)O)C(=O)N[C@H](CCNC(C)C)C(=O)N[C@@H](CO)C(=O)N[C@@H](CCN)C(=O)N[C@@H](CCN)C(=O)N[C@H](C(=O)N[C@@H](Cc2ccc(O)cc2)C(=O)O)CSSC1(C)C [Example 96, Gua-Val-Hyp-Ile-Pen-Tyr-Thr-Asn-Arg-Dab-Thr-^DDab(iPr)-Ser-Dab-Dab-Cys-Tyr] ({Val(Nα-amidino)}-[Hyp]I[Pen]YTNR[Dab]T[dDab(iPr)]S[Dab][Dab]CY-OH; disulfide 3-14)",<1

# From US20240336654A1, “ANTIMICROBIAL PEPTIDOMIMETICS” (SPEXIS AG, priority 2021, published 2024)
